Assay results as given in patent publication US10071064B2, “Tincture for infusing flavonoids and methods of use” (Heart Healthy Spirits, LLC, priority 2014, dated 2018).

Columns and labels:
[1] = Near-saturated concentration of resveratrol in ethanol; type: physicochemical; conditions: 25° C.
Method: To deliver a 25 mg dose, 0.60 mL of tincture is required regardless of volume of beverage.

[2] = Free trans-resveratrol in beverages after adding trans-resveratrol powder, 10 micron filtered (HPLC/(+)ESI-MS/MS and HPLC/UV); type: physicochemical
From the text: All beverages receiving the powder are thoroughly mixed. […] A few milliliters of each beverage are transferred to amber-colored sample vials. Samples are stored from each beverage in a refrigerator for analysis.

Row | concentration of concentrated (near-saturated) tincture [1] [µg/mL] | SMILES | appearance on adding powder to beverage ([2]; 25 mg powder in a serving volume, all beverages) | amount of bioavailable (free) resveratrol ([2]; 25 mg powder in alcoholic beverages (red wine, white wine, beer, spirits), 10 micron filtered) | measurable concentrations of free trans-resveratrol ([2]; 25 mg powder in non-alcoholic beverages (energy drink, sodas, orange juice), 10 micron filtered)
1 | 42000 | Oc1ccc(/C=C/c2cc(O)cc(O)c2)cc1 [resveratrol, trans-resveratrol] |  |  | 
2 |  | Oc1ccc(/C=C/c2cc(O)cc(O)c2)cc1 [trans-resveratrol powder, trans-resveratrol] | appears to suspend in solution forming a cloudy layer | below the minimum detection limits of the devices | none of the non-alcoholic beverages (energy drink, sodas, and orange juice) receiving the powder show any measurable concentrations of trans-resveratrol
